The values below come from US7723523B2, “Tetrahydropyridothiophenes” (4SC AG, priority 2004, dated 2010).

By IC50 is commonly meant the midpoint of a concentration-inhibition curve.

The subject of test [1] is RKO colon adenocarcinoma cells (RKOp27) arrested by expression of ectopic p27Kip1. Description: Alamar Blue cell viability assay on RKOp27 cells arrested by Ponasterone A-induced p27Kip1 (cell cycle specific mode of action). The test is classed as cell-based. As to conditions: Homo sapiens, RKOp27, 72 h, cells arrested by p27Kip1 induced with 10 μM Ponasterone A, 72 hours incubation, read-out: IC50 RKO p27 arrested. The method, boiled down:
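Viability measured by Alamar Blue fluorescence (ex 544, em 590 nm) after 72 h, 37 °C compound exposure in quadruplicate, normalized to untreated cells as 100%. Cells were p27Kip1-arrested RKOp27, induced with 10 μM Ponasterone A at seeding; compound added 24 h later.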
On the technique in general: The colour change of resazurin is a common sign of viable cells or microbes.

The test system of test [2] is RKO (RKOp27) human colon adenocarcinoma cells. Description: Alamar Blue cell viability assay, anti-proliferative/cytotoxic activity on proliferating RKOp27 cells. The test is classed as cell-based. As to conditions: absence of Ponasterone A, 72 hours incubation, read-out: IC50 RKO p27 proliferating. The gist of the method:
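IC50 values come from concentration-effect curves of Alamar Blue fluorescence (544/590 nm), relative to untreated controls set at 100%. Cells were RKOp27, seeded at 4000/well in DMEM with 10% FCS and exposed from 24 h post-seeding for 72 h (37 °C, 5% CO2) to semi-log dilutions, each run in quadruplicate.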

Take `N#Cc1c(NC(=O)/C=C/c2ccccc2)sc2c1CCN(C(=O)OCC(O)CO)C2` (stereo not shown) [Example 128, 3-Cyano-2-((E)-3-phenyl-allanoylamino)-4,7-dihydro-5H-thieno[2,3-c]pyridine-6-carboxylic acid 2,3-dihydroxy-propyl ester]: the IC50 in test [1] was not below 100 µM; in test [2], not above 2 µM.
The matching figures for `CC(C)(C)OC(=O)N1CCc2c(sc(NC(=O)/C=C/c3ccccc3)c2C#N)C1` [Example 2, N-(6-tert-Butoxycarbonyl-3-cyano-4,5,6,7-tetrahydro-thieno[2,3-c]pyridin-2-yl)-3-phenyl-acrylamide]: more than 100 µM and not above 2 µM.
Turning to `N#Cc1c(NC(=O)/C=C/c2cccnc2)sc2c1CCN(C(=O)OCCc1ccccn1)C2` [Example 158, 3-Cyano-2-((E)-3-pyridin-3-yl-allanoylamino)-4,7-dihydro-5H-thieno[2,3-c]pyridine-6-carboxylic acid 2-pyridin-2-ylethyl ester], the IC50 in test [1] is not below 100 µM; in test [2] it was not above 2 µM.
As for `CCOC(=O)N1CCc2c(sc(NC(=O)/C=C/c3cccc([N+](=O)[O-])c3)c2C#N)C1` [Example 29, 3-Cyano-2-[(E)-3-(3-nitro-phenyl)-allanoylamino]-4,7-dihydro-5H-thieno[2,3-c]pyridine-6-carboxylic acid ethyl ester], the IC50 in test [1] is more than 100 µM; in test [2], not above 2 µM.
In the case of `CCOC(=O)N1CCc2c(sc(NC(=O)/C=C/c3cccc(OC)c3)c2C#N)C1` [Example 19, 3-Cyano-2-[(E)-3-(3-methoxy-phenyl)-allanoylamino]-4,7-dihydro-5H-thieno[2,3-c]pyridine-6-carboxylic acid ethyl ester], the IC50 is more than 100 µM in test [1] and not above 2 µM in test [2].
For `CCOC(=O)N1CCc2c(sc(NC(=O)/C=C/c3ccc[nH]3)c2C#N)C1` [Example 103, 3-Cyano-2-((E)-3-1-H-pyrrol-2-yl-allanoylamino)-4,7-dihydro-5H-thieno[2,3-c]pyridine-6-carboxylic acid ethylester], the IC50 in test [1] is not below 100 µM; in test [2], not above 2 µM.
`COc1ccccc1/C=C/C(=O)Nc1sc2c(c1C#N)CCN(C(=O)OCc1cccnc1)C2` [Example 140, 3-Cyano-2-[(E)-3-(2-methoxy-phenyl)-allanoylamino]-4,7-dihydro-5H-thieno[2,3-c]pyridine-6-carboxylic acid pyridin-3-ylmethyl ester]: the figures for the IC50 in test [1] and in test [2] were not below 100 µM and not above 2 µM, respectively.
The matching figures for `CCOc1ccccc1/C=C/C(=O)Nc1sc2c(c1C#N)CCN(C(=O)CCOC)C2` [Example 216, (E)-N-[3-Cyano-6-(3-methoxy-propanoyl)-4,5,6,7-tetrahydro-thieno[2,3-c]pyridin-2-yl]-3-(2-ethoxy-phenyl)-acrylamide]: not below 100 µM and not above 2 µM.
For the compound `CCOc1ccccc1/C=C/C(=O)Nc1sc2c(c1C#N)CCN(C(=O)CCc1cccnc1)C2` [Example 220, (E)-N-[3-Cyano-6-(3-pyridin-3-yl-propanoyl)-4,5,6,7-tetrahydro-thieno[2,3-c]pyridin-2-yl]-3-(2-ethoxy-phenyl)-acrylamide], the IC50 in test [1] was not below 50 µM; in test [2], not above 0.5 µM.
Consider `CCOC(=O)N1CCc2c(sc(NC(=O)/C=C/c3cccc(Cl)c3F)c2C#N)C1` [Example 61, 3-Cyano-2-[(E)-3-(3-chloro-2-fluoro-phenyl)-allanoylamino]-4,7-dihydro-5H-thieno[2,3-c]pyridine-6-carboxylic acid ethyl ester], for which the IC50 was not below 100 µM in test [1] and not above 2 µM in test [2].
Consider `CCCCOC(=O)N1CCc2c(sc(NC(=O)/C=C/c3cccnc3)c2C#N)C1` [Example 43, 3-Cyano-2-((E)-3-pyridin-3-yl-allanoylamino)-4,7-dihydro-5H-thieno[2,3-c]pyridine-6-carboxylic acid butyl ester], for which the IC50 in test [1] was more than 100 µM; in test [2], not above 2 µM.
With `CCOC(=O)N1CCc2c(sc(NC(=O)/C=C/c3sccc3Cl)c2C#N)C1` [Example 64, 2-[(E)-3-(3-Chloro-thiophen-2-yl)-allanoylamino]-cyano-4,7-dihydro-5H-thieno[2,3-c]pyridine-6-carboxylic acid ethyl ester], the IC50 is not below 100 µM in test [1] and not above 2 µM in test [2].
For the compound `N#Cc1c(NC(=O)/C=C/c2ccccc2)sc2c1CCN(C(=O)OCCc1ccncc1)C2` [Example 126, 3-Cyano-2-((E)-3-phenyl-allanoylamino)-4,7-dihydro-5H-thieno[2,3-c]pyridine-6-carboxylic acid 2-pyridin-4-yl-ethyl ester], the IC50 in test [1] is not below 100 µM; in test [2], not above 2 µM.
Turning to `CCOC(=O)N1CCc2c(sc(NC(=O)/C=C/c3ccc(OC)cc3F)c2C#N)C1` [Example 70, 3-Cyano-2-[(E)-3-(2-fluoro-4-methoxy-phenyl)-allanoylamino]β4,7-dihydro-5H-thieno[2,3-c]pyridine-6-carboxylic acid ethyl ester], the IC50 in test [1] was not below 100 µM; in test [2], not above 2 µM.
As to `N#Cc1c(NC(=O)/C=C/c2ccccc2)sc2c1CCN(C(=O)CCc1c[nH]c3ccccc13)C2` [Example 171, (E)-N-[3-Cyano-6-(3-1H-indol-3-yl-propanoyl)-4,5,6,7-tetrahydro-thieno[2,3-c]pyridin-2-yl]-3-phenyl-acrylamide], the IC50 was not below 100 µM in test [1] and not above 2 µM in test [2].
The matching figures for `CCOC(=O)N1CCc2c(sc(NC(=O)/C=C/c3ccc(C)s3)c2C#N)C1` [Example 76, 3-Cyano-2-[(E)-3-(5-methyl-thiophen-2-yl)-allanoylamino]-4,7-dihydro-5H-thieno[2,3-c]pyridine-6-carboxylic acid ethyl ester]: not below 100 µM and not above 2 µM.
For `CCOc1ccccc1/C=C/C(=O)Nc1sc2c(c1C#N)CCN(C(=O)OC(C)(C)C)C2` [Example 54, 3-Cyano-2-[(E)-3-(2-ethoxy-phenyl)-allanoylamino]-4,7-dihydro-5H-thieno[2,3-c]pyridine-6-carboxylic acid tert-butyl ester], the IC50 in test [1] is not below 50 µM; in test [2] it was not above 0.5 µM.
For `CC1(C)OCC(COC(=O)N2CCc3c(sc(NC(=O)/C=C/c4ccccc4)c3C#N)C2)O1` (stereo not shown) [Example 127, 3-Cyano-2-((E)-3-phenyl-allanoylamino)-4,7-dihydro-5H-thieno[2,3-c]pyridine-6-carboxylic acid 2,2-dimethyl-[1,3]dioxolan-4-ylmethyl ester], the IC50 in test [1] was not below 100 µM; in test [2], not above 2 µM.
Take `COc1cccc(OC(=O)N2CCc3c(sc(NC(=O)/C=C/c4cccnc4)c3C#N)C2)c1` [Example 45, 3-Cyano-2-((E)-3-pyridin-3-yl-allanoylamino)-4,7-dihydro-5H-thieno[2,3-c]pyridine-6-carboxylic acid 3-methoxy-phenyl ester]: the IC50 in test [1] is more than 100 µM; in test [2] it was not above 2 µM.
The matching figures for `N#Cc1c(NC(=O)/C=C/c2ccccc2)sc2c1CCN(C(=O)CCc1cccnc1)C2` [Example 185, (E)-N-[3-Cyano-6-(3-pyridin-3-yl-propanoyl)-4,5,6,7-tetrahydro-thieno[2,3-c]pyridin-2-yl]-3-phenyl-acrylamide]: not below 100 µM and not above 2 µM.
In the case of `N#Cc1c(NC(=O)/C=C/c2ccco2)sc2c1CCN(C(=O)OCc1cccnc1)C2` [Example 242, 3-Cyano-2-((E)-3-furan-2-yl-allanoylamino)-4,7-dihydro-5H-thieno[2,3-c]pyridine-6-carboxylic acid pyridin-3-ylmethyl ester], the results for the IC50 in test [1] and in test [2] were not below 100 µM and not above 2 µM, respectively.
With `CCOC(=O)N1CCc2c(sc(NC(=O)/C=C/c3ccccc3)c2C#N)C1` [Example 1, N-(6-Ethoxycarbonyl-3-cyano-4,5,6,7-tetrahydro-thieno[2,3-c]pyridin-2-yl)-3-phenyl-acrylamide], the IC50 is more than 100 µM in test [1] and less than 1 µM in test [2].
Consider `N#Cc1c(NC(=O)/C=C/c2cccnc2)sc2c1CCN(C(=O)OCCN1CCOCC1)C2` [Example 156, 3-Cyano-2-((E)-3-pyridin-3-yl-allanoylamino) 4,7-dihydro-5H-thieno[2,3-c]pyridine-6-carboxylic acid 2-morpholin-4-yl-ethyl ester], for which the IC50 is not below 100 µM in test [1] and not above 2 µM in test [2].
The matching figures for `N#Cc1c(NC(=O)/C=C/c2ccccc2Cl)sc2c1CCN(C(=O)Cc1ccncc1)C2` [Example 214, (E)-3-(2-Chloro-phenyl)-N-[3-cyano-6-(2-pyridin-4-yl-ethanoyl)-4,5,6,7-tetrahydro-thieno[2,3-c]pyridin-2-yl]-acrylamide]: not below 100 µM and not above 2 µM.
The matching figures for `CCOC(=O)N1CCc2c(sc(NC(=O)/C=C/c3ccc4c(c3)OCO4)c2C#N)C1` [Example 30, 2-((E)-3-Benzo[1,3]dioxol-5-yl-allanoylamino)-3-cyano-4,7-dihydro-5H-thieno[2,3-c]pyridine-6-carboxylic acid ethyl ester]: more than 100 µM and not above 2 µM.
The matching figures for `COCCC(=O)N1CCc2c(sc(NC(=O)/C=C/c3cccnc3)c2C#N)C1` [Example 195, (E)-N-[3-Cyano-6-(3-methoxy-propanoyl)-4,5,6,7-tetrahydro-thieno[2,3-c]pyridin-2-yl]-3-pyridin-3-yl-acrylamide]: not below 100 µM and not above 2 µM.
